One assay has as its target T1, human GAL1 receptor (Homo sapiens, UniProt P47211).
T1 construct: expressed in transfected cells
T1 sequence (P47211 1-349): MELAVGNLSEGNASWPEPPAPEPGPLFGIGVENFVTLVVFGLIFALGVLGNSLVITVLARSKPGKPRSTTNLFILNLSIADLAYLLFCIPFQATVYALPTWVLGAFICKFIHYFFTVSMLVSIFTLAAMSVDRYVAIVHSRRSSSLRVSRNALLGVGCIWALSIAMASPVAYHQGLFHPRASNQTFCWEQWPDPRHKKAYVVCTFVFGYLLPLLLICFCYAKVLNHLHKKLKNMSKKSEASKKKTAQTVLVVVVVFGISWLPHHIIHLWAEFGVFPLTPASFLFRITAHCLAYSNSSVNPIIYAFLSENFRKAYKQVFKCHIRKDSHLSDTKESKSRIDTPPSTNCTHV
Description: Radioligand binding at cloned human GAL1 receptor. The settings on record: pyrimidines, Tables 1-3, read-out: Ki (nM) GalR1. Here is the method:
(§1) The present invention provides for a method of determining the binding affinity of a GAL3 antagonist, wherein the GAL3 antagonist is dissolved in a “suitable solvent”. A “suitable solvent” means one which permits the measurement of binding affinity of the GAL3 antagonist to the human GAL3 receptor at concentrations less than 1 μM, preferably less than 100 nM. Examples of solvents include, but are not limited to, DMSO, ethanol, N,N-dimethylacetamide, or water. For indolones, the preferred solvent is 3% DMSO (final concentration in the assay). For pyrimidines, the preferred solvent is 1% ethanol/0.09% polypuronic acid F-127 (final concentration in the assay). For any other type of compounds, the preferred solvent is the solvent which permits the measurement of binding affinity of a GAL3 antagonist at the lowest concentration. Once a suitable solvent is ascertained for the binding assay of the human GAL3 receptor, the same solvent is used in assays to determine the binding affinity for instance, at the GAL1 receptor.
(§2) The binding properties of the pyrimidines of the present invention were evaluated at the cloned human galanin receptors, GAL1, GAL2, and GAL3, using protocols described herein.
(§3) The binding properties of the indolones of the present invention were evaluated at the cloned human galanin receptors, GAL1, GAL2, and GAL3, using protocols described herein.
(§4) LM(tk-) cells were stably transfected with the human GAL1 or GAL3 receptor. CHO cells were stably transfected with the human GAL2 receptor.
(§5) cDNAs for the human and rat GAL1, and human and rat GAL3 receptors were transfected with a G-418 resistant gene into the mouse fibroblast LM(tk-) cell line by a calcium phosphate transfection method (Cullen, 1967). Stably transfected cells were selected with G-418. Human and rat GAL2 receptors were similarly transfected into CHO cells.
(§6) Membranes were harvested from stably transfected LM(tk-) cells. Adherent cells were washed twice in ice-cold phosphate buffered saline (138 mM NaCl, 8.1 mM Na2HPO4, 2.5 mM KCl, 1.2 mM KH2PO4, 0.9 mM CaCl2, 0.5 mM MgCl2, pH 7.4) and lysed by sonication in ice-cold sonication buffer (20 mM Tris-HCl, 5 mM EDTA, pH 7.7). Large particles and debris were cleared by low speed centrifugation (200×g, 5 min, 4° C.). Membranes were collected from the supernatant fraction by centrifugation (32,000×g, 18 min, 4° C.), washed with ice-cold hypotonic buffer, and collected again by centrifugation (32,000×g, 18 min, 4° C.). The final membrane pellet was resuspended by sonication into a small volume of ice-cold binding buffer (−1 ml for every 5 plates: 10 mM NaCl, 20 mM HEPES, 0.22 mM KH2PO4, 1.26 mM CaCl2, 0.81 mM MgSO4, pH 7.4). Protein concentration was measured by the Bradford method (Bradford, 1976) using Bio-Rad Reagent, with bovine serum albumin as a standard. Membranes were held on ice for up to one hour and used fresh, or flash frozen and stored in liquid nitrogen. Membranes were prepared similarly from CHO cells.
(§7) Galanin Receptors: Binding assays were performed according to the following published methods: human GAL3 (PCT International Publication No. WO 98/15570), human GAL1 (PCT International Publication No. WO 95/2260) human GAL2 (PCT International Publication No. WO 97/26853).
(§8) Binding data were analyzed using nonlinear regression and statistical techniques available in the GraphPAD Prism package (San Diego, Calif.). Enzymatic assay data were derived from a standard curve of reference compound data.

In a further assay the target is T2, human GAL2 receptor (Homo sapiens, UniProt O43603).
T2 construct: expressed in transfected cells
T2 sequence (O43603 1-387): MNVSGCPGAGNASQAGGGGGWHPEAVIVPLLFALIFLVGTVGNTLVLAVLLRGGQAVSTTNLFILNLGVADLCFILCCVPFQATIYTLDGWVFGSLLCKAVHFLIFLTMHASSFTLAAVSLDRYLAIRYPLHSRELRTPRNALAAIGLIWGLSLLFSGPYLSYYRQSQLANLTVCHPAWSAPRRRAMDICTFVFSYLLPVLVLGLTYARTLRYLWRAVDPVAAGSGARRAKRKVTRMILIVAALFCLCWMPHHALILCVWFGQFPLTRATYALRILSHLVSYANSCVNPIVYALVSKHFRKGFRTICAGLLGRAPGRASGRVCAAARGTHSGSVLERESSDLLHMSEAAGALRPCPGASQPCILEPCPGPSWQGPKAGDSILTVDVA
Briefly: Radioligand binding at cloned human GAL2 receptor. The settings on record: pyrimidines, Tables 1-3, read-out: Ki (nM) GalR2. Here is the method:
as §1, §2, §3, §4, §5, §6, §7, §8

The Ki is the dissociation constant of the complex between target and ligand, obtained from inhibition or displacement.

Each structure is given as a SMILES string.

Take `Cc1ccc(Nc2cc(N3CCCCC3)nc(Nc3ccccc3)n2)cc1` [Example 3]: the Ki on human GAL1 receptor and on human GAL2 receptor was greater than 5000 nM in each case. Consider `Cc1ccc(Nc2cc(N3CCCCC3)nc(Nc3ccc(C)cc3)n2)cc1` [Example 4], for which the Ki on human GAL1 receptor and on human GAL2 receptor was greater than 5000 nM each time. `Cc1ccc(Nc2cc(N3CCCCC3)nc(N(C)c3ccccc3)n2)cc1` [Example 6]: the Ki at human GAL1 receptor is greater than 5000 nM.

With `Cc1ccc(Nc2cc(N3CCCCC3)nc(NCCc3c[nH]c4ccc(C)cc34)n2)cc1` [Example 8], the Ki at human GAL1 receptor was greater than 5000 nM. On the same count and under the same terms, then `COc1ccc2[nH]cc(CCNc3nc(Nc4ccc(C)cc4)cc(N4CCCCC4)n3)c2c1` [Example 9], with greater than 5000 nM; and `Cc1ccc(Nc2cc(N3CCCCC3)nc(NCCc3c[nH]c4ccccc34)n2)cc1` [Example 10], with greater than 5000 nM; and `Cc1ccc(Nc2cc(N3CCCCC3)nc(N(C)CCc3c[nH]c4ccccc34)n2)cc1` [Example 11], with greater than 5000 nM.

Take `CN(CCc1c[nH]c2ccccc12)c1nc(Nc2cccc(F)c2)cc(N2CCCCC2)n1` [Example 14]: the Ki on human GAL1 receptor was greater than 5000 nM. `Cc1ccc(Nc2cc(N3CCCCC3)nc(N(C)CCc3c[nH]c4ccccc34)n2)cc1Cl` [Example 16]: the Ki at human GAL1 receptor and at human GAL2 receptor was greater than 5000 nM throughout.

For `COc1cccc(Nc2cc(N3CCCCC3)nc(N(C)CCc3c[nH]c4ccccc34)n2)c1` [Example 17], at human GAL1 receptor, the Ki is greater than 5000 nM.

With `COCCN(CCc1c[nH]c2ccccc12)c1nc(Nc2ccc(C)cc2)cc(N2CCCCC2)n1` [Example 19], the Ki at human GAL1 receptor was greater than 5000 nM.

On to `Cc1ccc(Nc2cc(N3CCCCC3)nc(N3CCN(Cc4ccccc4)CC3)n2)cc1` [Example 23], for which the inhibitory constant (Ki) on human GAL1 receptor and on human GAL2 receptor was greater than 5000 nM throughout. Take `Cc1ccc(Nc2cc(N3CCCCC3)nc(N3CCC(c4ccccc4)CC3)n2)cc1` [Example 24]: the Ki on human GAL1 receptor was greater than 5000 nM. Take `CCc1ccccc1N1CCN(c2nc(Nc3ccc(C)cc3)cc(N3CCCCC3)n2)CC1` [Example 26]: at human GAL1 receptor, the Ki is greater than 5000 nM. The same measure, in the same setting: next, `Cc1ccc(Nc2cc(N3CCCCC3)nc(N3CCN(c4ccccn4)CC3)n2)cc1` [Example 30]: greater than 5000 nM; `Cc1ccc(Nc2cc(N3CCCCC3)nc(N3CCN(c4ncccc4C)CC3)n2)cc1` [Example 31]: greater than 5000 nM. Same read-out and setting: then `Cc1ccc(Nc2cc(N3CCCCC3)nc(N3CCN(c4cc(C(F)(F)F)ccn4)CC3)n2)cc1` [Example 32], with greater than 5000 nM. With `Cc1ccc(Nc2cc(N3CCCCC3)nc(N3CCN(c4cccc(C(F)(F)F)n4)CC3)n2)cc1` [Example 33], the Ki at human GAL1 receptor and at human GAL2 receptor was greater than 5000 nM throughout. As for `Cc1ccc(Nc2cc(N3CCCCC3)nc(N3CCN(c4ncccn4)CC3)n2)cc1` [Example 37], the inhibition constant Ki at human GAL1 receptor was greater than 5000 nM. For the compound `Cc1ccc(Nc2cc(N3CCCCC3)nc(N3CCc4ccccc43)n2)cc1` [Example 39], the Ki at human GAL1 receptor and at human GAL2 receptor was greater than 5000 nM each time. As for `Cc1ccc(Nc2cc(N3CCCCC3)nc(N3CCCc4ccccc43)n2)cc1` [Example 40], the Ki at human GAL1 receptor is greater than 5000 nM.

As for `COc1cc2c(cc1OC)CN(c1nc(Nc3ccc(C)cc3)cc(N3CCCCC3)n1)CC2` [Example 42], the Ki at human GAL1 receptor is greater than 5000 nM. Regarding `Cc1ccc(Nc2cc(N3CCCCC3)nc(N3Cc4cccc5cccc(c45)C3)n2)cc1` [Example 43], the Ki at human GAL1 receptor and at human GAL2 receptor was greater than 5000 nM in each case. With `Cc1ccc(Nc2cc(N3CCCCC3)nc(N3CCC(O)(c4ccccc4)CC3)n2)cc1` [Example 44], on human GAL1 receptor, the Ki was greater than 5000 nM. In the case of `COCCN(CCOC)c1nc(Nc2ccc(C)cc2)cc(N2CCCCC2)n1` [Example 45], the Ki at human GAL1 receptor and at human GAL2 receptor was greater than 5000 nM in each case. In the case of `CN(C)c1cc(Nc2ccccc2)nc(Nc2ccccc2)n1` [Example 50], the Ki on human GAL1 receptor and on human GAL2 receptor was greater than 5000 nM each time. `Cc1cccc(Nc2cc(N(C)C)nc(Nc3ccccc3)n2)c1` [Example 52]: the Ki at human GAL1 receptor and on human GAL2 receptor was greater than 5000 nM throughout. On to `Cc1ccc(Nc2nc(Nc3cccc(C)c3)cc(N(C)C)n2)cc1` [Example 53], for which the Ki at human GAL1 receptor and at human GAL2 receptor was greater than 5000 nM each time. On to `Cc1ccc(Nc2cc(N(C)C)nc(Nc3ccccc3)n2)cc1` [Example 54], for which the Ki on human GAL1 receptor and at human GAL2 receptor was greater than 5000 nM in each case. With `Cc1ccc(Nc2cc(N(C)C)nc(Nc3ccc(Cl)c(Cl)c3)n2)cc1` [Example 55], the inhibition constant Ki on human GAL1 receptor and on human GAL2 receptor was greater than 5000 nM throughout. As for `Cc1ccc(Nc2cc(N(C)C)nc(Nc3ccc(C)cc3)n2)cc1` [Example 56], the Ki on human GAL1 receptor and at human GAL2 receptor was greater than 5000 nM in each case. As to `CN(C)c1cc(Nc2cccc(F)c2)nc(Nc2ccccc2)n1` [Example 57], the Ki on human GAL1 receptor and on human GAL2 receptor was greater than 5000 nM throughout. As to `CN(C)c1cc(Nc2ccc(Br)cc2)nc(Nc2ccccc2)n1` [Example 59], the Ki at human GAL1 receptor and at human GAL2 receptor was greater than 5000 nM each time. For the compound `CN(C)c1cc(Nc2ccc(C(C)(C)C)cc2)nc(Nc2ccccc2)n1` [Example 63], the Ki on human GAL1 receptor and at human GAL2 receptor was greater than 5000 nM in each case. Consider `CN(C)c1cc(Nc2ccc(Oc3ccccc3)cc2)nc(Nc2ccccc2)n1` [Example 64], for which the Ki at human GAL1 receptor and at human GAL2 receptor was greater than 5000 nM throughout. On to `CN(C)c1cc(Nc2ccc3ccccc3c2)nc(Nc2ccccc2)n1` [Example 65], for which the Ki at human GAL1 receptor and on human GAL2 receptor was greater than 5000 nM throughout.

Turning to `CN(C)c1cc(NC2CCCCC2)nc(Nc2ccccc2)n1` [Example 66], the Ki at human GAL1 receptor and at human GAL2 receptor was greater than 5000 nM each time. In the case of `Cc1ccc(Nc2cc(N(C)C)nc(N(C)c3ccc(C)cc3)n2)cc1` [Example 72], on human GAL1 receptor, the Ki was greater than 5000 nM. Same read-out and setting: next, `Cc1ccc(Nc2cc(N(C)C)nc(N(C)C3CCCCC3)n2)cc1` [Example 73]: greater than 5000 nM; `Cc1ccc(Nc2cc(N(C)C)nc(N3CCC(O)(c4ccccc4)CC3)n2)cc1` [Example 80]: greater than 5000 nM. On to `Cc1ccc(Nc2cc(N(C)C)nc(N3CCC(c4ccccc4)CC3)n2)cc1` [Example 81], for which, on human GAL1 receptor, the Ki was greater than 5000 nM. With `Cc1ccc(Nc2cc(N(C)C)nc(N3CCN(S(=O)(=O)c4ccc(C)cc4)CC3)n2)cc1` [Example 84], the Ki at human GAL1 receptor and on human GAL2 receptor was greater than 5000 nM throughout. `Cc1ccc(Nc2cc(N(C)C)nc(N3CCN(c4ccccc4C)CC3)n2)cc1` [Example 85]: the Ki at human GAL1 receptor is greater than 5000 nM. With `Cc1ccc(Nc2cc(N(C)C)nc(N3CCN(c4cccc(C)c4)CC3)n2)cc1` [Example 86], the Ki on human GAL1 receptor and on human GAL2 receptor was greater than 5000 nM in each case. For the compound `Cc1ccc(Nc2cc(N(C)C)nc(N3CCN(c4ccc(C)cc4)CC3)n2)cc1` [Example 87], the Ki on human GAL1 receptor is greater than 5000 nM.
